Our source for the CC50 values is patent US12448388B2, “PRMT5 inhibitors and uses thereof” (Gilead Sciences, Inc., priority 2023, dated 2025).

As usually defined, the CC50 is the concentration that lowers cell viability or growth by half.

For the assay, the system named is HCT116 MTAP-deleted cell lines. Nature of the assay: Cell viability assay (CellTiter-Glo, 7 days), HCT116 MTAP-deleted. The assay is classed as cell-based. The conditions noted are these: Homo sapiens, HCT-116; cell viability assay, HCT116 MTAP-deleted; class symbols; read-out: CC50. The essentials: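 HCT116 MTAP-deleted and wild-type cells exposed to serially diluted compound for 7 days at 37 °C, 5% CO2. Viability read by CellTiter-Glo luminescence; CC50 derived per line, with selectivity comparing WT to MTAP-deleted, limited solubility can inflate values marked *.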

For `CN(Cc1ccc([C@@H]2C[C@H]2c2ccn(C(F)F)n2)cc1F)C(=O)c1cc2c(cc1F)nc(N)c1cncn12` [Ff-429, 4-amino-N-[[4-[(1R,2R)-2-[1-(difluoromethyl)pyrazol-3-yl]cyclopropyl]-2-fluoro-phenyl]methyl]-7-fluoro-N-methyl-imidazo[1,5-a]quinoxaline-8-carboxamide], the CC50 was below 100 nM.

For `CN(C(=O)c1cc2c(cc1F)nc(N)c1cncn12)C1CCCc2cc(C(F)(F)F)ccc21` (centres unmarked) [Ff-430, 4-amino-7-fluoro-N-methyl-N-[6-(trifluoromethyl)tetralin-1-yl]imidazo[1,5-a]quinoxaline-8-carboxamide], the CC50 fell in the range of 100 to 1000 nM.

Take `COC[C@H](c1ccc(C(F)(F)F)cc1)N(C)C(=O)c1cc2c(cc1F)nc(N)c1cncn12` [Ff-431, 4-amino-7-fluoro-N-[(1S)-2-methoxy-1-[4-(trifluoromethyl)phenyl]ethyl]-N-methyl-imidazo[1,5-a]quinoxaline-8-carboxamide]: the CC50 is 100 to 1000 nM.

In the case of `Nc1nc2cc(F)c(C(=O)N3CCCCC4Oc5cc(C(F)(F)F)ccc5C43)cc2n2cncc12` (centres unmarked) [Ff-432, (4-amino-7-fluoro-imidazo[1,5-a]quinoxalin-8-yl)-[8-(trifluoromethyl)-2,3,4,5,5a,10b-hexahydrobenzofuro[3,2-b]azepin-1-yl]methanone], the half-maximal cytotoxic concentration (CC50) was below 100 nM.

With `CN(Cc1ccc(OCC(F)(F)F)cc1)C(=O)c1cc2c(cc1F)nc(N)c1cncn12` [Ff-433, 4-amino-7-fluoro-N-methyl-N-[[4-(2,2,2-trifluoroethoxy)phenyl]methyl]imidazo[1,5-a]quinoxaline-8-carboxamide], the CC50 was in the range of 100 to 1000 nM.

With `CN(C(=O)c1cc2c(cc1F)nc(N)c1cncn12)[C@@H]1CCc2cc([C@@H]3C[C@H]3C#N)ccc21` [Ff-434, Trans-4-amino-N-[(1R)-5-(2-cyanocyclopropyl)indan-1-yl]-7-fluoro-N-methyl-imidazo[1,5-a]quinoxaline-8-carboxamide], the half-maximal cytotoxic concentration (CC50) was below 100 nM.

`Cc1ncn2c1c(N)nc1cnc(C(=O)N(C)C3CCc4cc(C(F)(F)F)ccc43)cc12` (centres unmarked) [Ff-435, 7-amino-N,5-dimethyl-N-[5-(trifluoromethyl)indan-1-yl]-2,4,8,11-tetrazatricyclo[7.4.0.02,6]trideca-1(13),3,5,7,9,11-hexaene-12-carboxamide]: the CC50 is 100 to 1000 nM.

On to `CN(C(=O)c1cc2c(cn1)nc(N)c1cncn12)C1CCc2cc(C(F)(F)F)ccc21` (centres unmarked) [Ff-436, 7-amino-N-methyl-N-[5-(trifluoromethyl)indan-1-yl]-2,4,8,11-tetrazatricyclo[7.4.0.02,6]trideca-1(13),3,5,7,9,11-hexaene-12-carboxamide], for which the cytotoxic concentration (CC50) was below 100 nM.

Take `CN(C(=O)c1cc2c(cc1F)nc(N)c1cncn12)[C@@H]1COc2cc(C#CC3(C(F)F)CCOCC3)ccc21` [Ff-437, (S)-4-amino-N-(6-((4-(difluoromethyl)tetrahydro-2H-pyran-4-yl)ethynyl)-2,3-dihydrobenzofuran-3-yl)-7-fluoro-N-methylimidazo[1,5-a]quinoxaline-8-carboxamide]: the CC50 is below 100 nM.

Regarding `CN(C(=O)c1cc2c(cc1F)nc(N)c1cncn12)[C@@H]1COc2cc([C@@H]3C[C@H]3C#N)c(F)cc21` [Ff-438, Trans-4-amino-N-[(3S)-6-(2-cyanocyclopropyl)-5-fluoro-2,3-dihydrobenzofuran-3-yl]-7-fluoro-N-methyl-imidazo[1,5-a]quinoxaline-8-carboxamide], the CC50 was below 100 nM.

Turning to `CN(C(=O)c1cc2c(cc1F)nc(N)c1cncn12)[C@@H]1COc2cc(C#CC(C)(C)C#N)ccc21` [Ff-439, 4-amino-N-[(3S)-6-(3-cyano-3-methyl-but-1-ynyl)-2,3-dihydrobenzofuran-3-yl]-7-fluoro-N-methyl-imidazo[1,5-a]quinoxaline-8-carboxamide], the CC50 is below 100 nM.

On to `CN(C(=O)c1cc2c(cc1F)nc(N)c1cncn12)[C@@H]1COc2cc(C#CC3(F)COC3)ccc21` [Ff-440, 4-amino-7-fluoro-N-[(3S)-6-[2-(3-fluorooxetan-3-yl)ethynyl]-2,3-dihydrobenzofuran-3-yl]-N-methyl-imidazo[1,5-a]quinoxaline-8-carboxamide], for which the CC50 was below 100 nM.

Regarding `CN(C(=O)c1cc2c(cc1F)nc(N)c1cncn12)[C@@H]1COc2cc(C#CC3(CC#N)CC3)ccc21` [Ff-441, 4-amino-N-[(3S)-6-[2-[1-(cyanomethyl)cyclopropyl]ethynyl]-2,3-dihydrobenzofuran-3-yl]-7-fluoro-N-methyl-imidazo[1,5-a]quinoxaline-8-carboxamide], the CC50 is below 100 nM.

`CN(C(=O)c1cc2c(cc1F)nc(N)c1cncn12)[C@@H]1COc2cc(C#CC(C)(C)O)ccc21` [Ff-442, 4-amino-7-fluoro-N-[(3S)-6-(3-hydroxy-3-methyl-but-1-ynyl)-2,3-dihydrobenzofuran-3-yl]-N-methyl-imidazo[1,5-a]quinoxaline-8-carboxamide]: the CC50 was below 100 nM.

As for `CN(C(=O)c1cc2c(cc1Cl)nc(N)c1cncn12)[C@@H]1COc2cc([C@@H]3C[C@H]3C#N)c(F)cc21` [Ff-443, Trans-4-amino-7-chloro-N-[(3S)-6-(2-cyanocyclopropyl)-5-fluoro-2,3-dihydrobenzofuran-3-yl]-N-methyl-imidazo[1,5-a]quinoxaline-8-carboxamide], the half-maximal cytotoxic concentration (CC50) is below 100 nM.

`CN(C(=O)c1cc2c(cc1F)nc(N)c1cncn12)[C@@H]1COc2cc(C34CC(C3)C4)ccc21` [Ff-444, 4-amino-N-[(3S)-6-(1-bicyclo[1.1.1]pentanyl)-2,3-dihydrobenzofuran-3-yl]-7-fluoro-N-methyl-imidazo[1,5-a]quinoxaline-8-carboxamide]: the CC50 was below 100 nM.

Take `CN(C(=O)c1cc2c(cc1F)nc(N)c1cncn12)[C@@H]1COc2cc(C#CC3(C#N)CC3)ccc21` [Ff-445, 4-amino-N-[(3S)-6-[2-(1-cyanocyclopropyl)ethynyl]-2,3-dihydrobenzofuran-3-yl]-7-fluoro-N-methyl-imidazo[1,5-a]quinoxaline-8-carboxamide]: the CC50 was below 100 nM.

For the molecule `CN(C(=O)c1cc2c(cc1F)nc(N)c1cncn12)[C@@H]1COc2cc(C#CC3(F)CCOC3)ccc21` (stereo partly drawn) [Ff-446, 4-amino-7-fluoro-N-[(3S)-6-[2-(3-fluorotetrahydrofuran-3-yl)ethynyl]-2,3-dihydrobenzofuran-3-yl]-N-methyl-imidazo[1,5-a]quinoxaline-8-carboxamide], the CC50 is below 100 nM.

Consider `CN(C(=O)c1cc2c(cc1F)nc(N)c1cncn12)[C@@H]1COc2cc(C#CC(C)(C)F)ccc21` [Ff-447, 4-amino-7-fluoro-N-[(3S)-6-(3-fluoro-3-methyl-but-1-ynyl)-2,3-dihydrobenzofuran-3-yl]-N-methyl-imidazo[1,5-a]quinoxaline-8-carboxamide], for which the CC50 is below 100 nM.

For the molecule `N#C[C@@H]1C[C@H]1c1ccc2c(c1)C[C@H]1OCCN(C(=O)c3cc4c(cc3F)nc(N)c3cncn34)[C@@H]21` [Ff-448, Trans-2-[(4aS,9aR)-4-(4-amino-7-fluoro-imidazo[1,5-a]quinoxaline-8-carbonyl)-3,4a,9,9a-tetrahydro-2H-indeno[2,1-b][1,4]oxazin-7-yl]cyclopropanecarbonitrile], the 50% cytotoxic concentration (CC50) was below 100 nM.
